Experimental findings from article PMC10028264, “Synergistic antifungal interaction of N-(butylcarbamothioyl) benzamide and amphotericin B against Cryptococcus neoformans” (Frontiers in Microbiology, 2023) are described below.

SMILES strings stand for the structures. Converted amounts (≈) assume the structure as drawn.

The target in this assay is T1, cryptococcal urease (Cryptococcus neoformans, UniProt O13465).
T1 construct: 100 μL of crude protein extract; endogenous in cells; host or cells: Cryptococcus neoformans ATCC 34872, crude lysate (glass-bead lysis, supernatant)
T1 sequence (O13465 whole entry): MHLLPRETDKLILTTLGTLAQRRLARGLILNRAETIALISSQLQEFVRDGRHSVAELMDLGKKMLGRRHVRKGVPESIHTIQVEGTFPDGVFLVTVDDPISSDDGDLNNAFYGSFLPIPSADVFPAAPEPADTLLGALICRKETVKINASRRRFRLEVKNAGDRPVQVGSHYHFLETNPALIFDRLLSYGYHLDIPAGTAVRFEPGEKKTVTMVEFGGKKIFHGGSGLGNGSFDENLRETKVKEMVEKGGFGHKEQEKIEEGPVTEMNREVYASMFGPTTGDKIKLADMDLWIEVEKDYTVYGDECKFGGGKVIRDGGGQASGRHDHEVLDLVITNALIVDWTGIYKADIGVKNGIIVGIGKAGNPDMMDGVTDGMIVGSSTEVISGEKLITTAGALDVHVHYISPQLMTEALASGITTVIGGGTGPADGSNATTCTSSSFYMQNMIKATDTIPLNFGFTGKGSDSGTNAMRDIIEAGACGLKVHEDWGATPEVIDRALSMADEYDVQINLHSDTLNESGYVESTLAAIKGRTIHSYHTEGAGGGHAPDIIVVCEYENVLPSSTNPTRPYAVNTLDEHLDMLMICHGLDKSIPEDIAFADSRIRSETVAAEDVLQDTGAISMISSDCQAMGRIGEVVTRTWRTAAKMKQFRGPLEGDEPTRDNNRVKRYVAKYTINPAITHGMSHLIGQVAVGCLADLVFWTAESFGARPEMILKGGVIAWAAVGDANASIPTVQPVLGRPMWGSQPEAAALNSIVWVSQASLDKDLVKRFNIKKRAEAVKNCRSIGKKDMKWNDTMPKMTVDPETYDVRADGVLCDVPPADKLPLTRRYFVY
Briefly: Urease activity inhibition test (indophenol method, crude protein extract). The settings on record: C. neoformans ATCC 34872 crude protein extract; indophenol method. The format is biochemical. Here is the method: Five colonies of C. neoformans were suspended in 100 μL SD broth and inoculated onto SD agar using a Drigalski spreader, and the culture was incubated at 37°C for 48 h. Afterward, all fungal growth was gently scraped and transferred to conical flasks containing 300 mL of SD broth and incubated with shaking (150 rpm) at 37°C for further 48 h. Cells were centrifuged (6,000 × g, 10 min) and washed three times with distilled water. The protein extraction was performed according to [Moller et al. (2016)] with modifications. Briefly, fungal cells were resuspended in 10 mL of chilled lysis buffer consisting of 100 μM Nα-tosyl-L-lysine chloromethyl ketone hydrochloride (TLCK), 1 mM EDTA, 10% glycerol and 0.15 M phosphate-buffered saline (PBS), pH 8.0. […] Then, the cell debris was removed by centrifugation (6,000 × g, 15 min, 4°C), and the protein content of the resulting supernatant was quantified using the […].
The inhibition of urease activity was evaluated by the indophenol method ([Weatherburn, 1967]). […] The reaction mixtures were incubated for further 10 min at 45°C, and the optical density (OD) was measured at 630 nm. Urease inhibition percentage (I%) was calculated according to the equation: I% = 100–(ODBTU–01/ODcontrol) × 100. […]

In turn, `NC(N)=S` [thiourea, Thiourea, reference compound] gave an IC50 urease activity of 38.6 µg/mL (≈ 507 µM).
